Laboratory results published in the supplement of paper PMC10307832.

Legend:
Experiment in all cases: relative viability (nuclei count vs DMSO), 5 days (fraction); higher = more cells survive
ChaGo-K-1 = system: ChaGo-K-1
Method in brief: (§1)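 Relative viability is defined as nuclei in treated wells over nuclei in vehicle wells. Duplicate plates were run and medians reported. Lung cancer cell lines in 1536-well plates were dosed by pin tool one day after seeding, with one drug or with a fixed anchor-drug dose plus five library-drug doses (not always all listed) in √10 steps, and nuclei were counted after 5 days.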

NCI-H2126 = system: NCI-H2126
Method in brief: as §1

EPLC-272H = system: EPLC-272H
Method in brief: as §1

SW 1573 = system: SW 1573
Method in brief: as §1

NCI-H2023 = system: NCI-H2023
Method in brief: as §1

NCI-H460 = system: NCI-H460
Method in brief: as §1

NCI-H441 = system: NCI-H441
Method in brief: as §1

NCI-H2170 = system: NCI-H2170
Method in brief: as §1

LOU-NH91 = system: LOU-NH91
Method in brief: as §1

NCI-H727 = system: NCI-H727
Method in brief: as §1

NCI-H23 = system: NCI-H23
Method in brief: as §1

NCI-H1437 = system: NCI-H1437
Method in brief: as §1

HOP-62 = system: HOP-62
Method in brief: as §1

NCI-H2405 = system: NCI-H2405
Method in brief: as §1

NCI-H2347 = system: NCI-H2347
Method in brief: as §1

NCI-H1793 = system: NCI-H1793
Method in brief: as §1

NCI-H2009 = system: NCI-H2009
Method in brief: as §1

NCI-H647 = system: NCI-H647
Method in brief: as §1

EMC-BAC-2 = system: EMC-BAC-2
Method in brief: as §1

NCI-H520 = system: NCI-H520
Method in brief: as §1

HCC-44 = system: HCC-44
Method in brief: as §1

**Q.** Which results are given for `Cc1cnc(-c2cnc(NCCNc3ccc(C#N)cn3)nc2-c2ccc(Cl)cc2Cl)[nH]1` + CC1(C)CCC(c2ccc(Cl)cc2)=C(CN2CCN(c3ccc(C(=O)NS(=O)(=O)c4ccc(N[C@H](CCN5CCOCC5)CSc5ccccc5)c(S(=O)(=O)C(F)(F)F)c4)cc3)CC2)C1 [Navitoclax] (partner 0.5 µM)?
**A.** relative viability (ChaGo-K-1; first compound 0.08 µM): 0.791; relative viability (ChaGo-K-1; first compound 0.253 µM): 0.863; relative viability (ChaGo-K-1; first compound 0.8 µM): 0.516; relative viability (ChaGo-K-1; first compound 2.53 µM): 0.856; relative viability (NCI-H2126; first compound 0.08 µM): 0.881; relative viability (NCI-H2126; first compound 0.253 µM): 0.897; relative viability (NCI-H2126; first compound 0.8 µM): 0.878; relative viability (NCI-H2126; first compound 2.53 µM): 0.835; relative viability (EPLC-272H; first compound 0.08 µM): 1.22; relative viability (EPLC-272H; first compound 0.253 µM): 1.31; relative viability (EPLC-272H; first compound 0.8 µM): 1.12; relative viability (EPLC-272H; first compound 2.53 µM): 1.07; relative viability (SW 1573; first compound 0.08 µM): 1.29; relative viability (SW 1573; first compound 0.253 µM): 0.801; relative viability (SW 1573; first compound 0.8 µM): 1.01; relative viability (SW 1573; first compound 2.53 µM): 0.685; relative viability (NCI-H2023; first compound 0.08 µM): 1.01; relative viability (NCI-H2023; first compound 0.253 µM): 0.977; relative viability (NCI-H2023; first compound 0.8 µM): 1.08; relative viability (NCI-H2023; first compound 2.53 µM): 1.09; relative viability (NCI-H460; first compound 0.08 µM): 1.16; relative viability (NCI-H460; first compound 0.253 µM): 1.12; relative viability (NCI-H460; first compound 0.8 µM): 1.17; relative viability (NCI-H460; first compound 2.53 µM): 1.04; relative viability (NCI-H441; first compound 0.08 µM): 0.719; relative viability (NCI-H441; first compound 0.253 µM): 0.535; relative viability (NCI-H441; first compound 0.8 µM): 0.745; relative viability (NCI-H441; first compound 2.53 µM): 0.57; relative viability (NCI-H2170; first compound 0.08 µM): 0.638; relative viability (NCI-H2170; first compound 0.253 µM): 0.51; relative viability (NCI-H2170; first compound 0.8 µM): 0.517; relative viability (NCI-H2170; first compound 2.53 µM): 0.537; relative viability (LOU-NH91; first compound 0.08 µM): 0.821; relative viability (LOU-NH91; first compound 0.253 µM): 0.679; relative viability (LOU-NH91; first compound 0.8 µM): 0.611; relative viability (LOU-NH91; first compound 2.53 µM): 0.633; relative viability (NCI-H727; first compound 0.08 µM): 0.45; relative viability (NCI-H727; first compound 0.253 µM): 0.432; relative viability (NCI-H727; first compound 0.8 µM): 0.476; relative viability (NCI-H727; first compound 2.53 µM): 0.364; relative viability (NCI-H23; first compound 0.08 µM): 0.875; relative viability (NCI-H23; first compound 0.253 µM): 0.87; relative viability (NCI-H23; first compound 0.8 µM): 0.63; relative viability (NCI-H23; first compound 2.53 µM): 0.785; relative viability (NCI-H1437; first compound 0.08 µM): 1.1; relative viability (NCI-H1437; first compound 0.253 µM): 1.05; relative viability (NCI-H1437; first compound 0.8 µM): 1.12; relative viability (NCI-H1437; first compound 2.53 µM): 1.12; relative viability (HOP-62; first compound 0.08 µM): 1.13; relative viability (HOP-62; first compound 0.253 µM): 0.843; relative viability (HOP-62; first compound 0.8 µM): 0.997; relative viability (HOP-62; first compound 2.53 µM): 0.768; relative viability (NCI-H2405; first compound 0.08 µM): 1.17; relative viability (NCI-H2405; first compound 0.253 µM): 0.761; relative viability (NCI-H2405; first compound 0.8 µM): 1.02; relative viability (NCI-H2405; first compound 2.53 µM): 0.326; relative viability (NCI-H2347; first compound 0.08 µM): 0.947; relative viability (NCI-H2347; first compound 0.253 µM): 0.625; relative viability (NCI-H2347; first compound 0.8 µM): 0.832; relative viability (NCI-H2347; first compound 2.53 µM): 0.857; relative viability (NCI-H1793; first compound 0.08 µM): 0.399; relative viability (NCI-H1793; first compound 0.253 µM): 0.446; relative viability (NCI-H1793; first compound 0.8 µM): 0.283; relative viability (NCI-H1793; first compound 2.53 µM): 0.354; relative viability (NCI-H2009; first compound 0.08 µM): 1.15; relative viability (NCI-H2009; first compound 0.253 µM): 1.16; relative viability (NCI-H2009; first compound 0.8 µM): 1.28; relative viability (NCI-H2009; first compound 2.53 µM): 1.06; relative viability (NCI-H647; first compound 0.08 µM): 1.19; relative viability (NCI-H647; first compound 0.253 µM): 0.718; relative viability (NCI-H647; first compound 0.8 µM): 1.07; relative viability (NCI-H647; first compound 2.53 µM): 0.723; relative viability (EMC-BAC-2; first compound 0.08 µM): 1.17; relative viability (EMC-BAC-2; first compound 0.253 µM): 1.05; relative viability (EMC-BAC-2; first compound 0.8 µM): 1.18; relative viability (EMC-BAC-2; first compound 2.53 µM): 1.18; relative viability (NCI-H520; first compound 0.08 µM): 1.22; relative viability (NCI-H520; first compound 0.253 µM): 1.13; relative viability (NCI-H520; first compound 0.8 µM): 1.24; relative viability (NCI-H520; first compound 2.53 µM): 1.13; relative viability (HCC-44; first compound 0.08 µM): 1.05; relative viability (HCC-44; first compound 0.253 µM): 0.792; relative viability (HCC-44; first compound 0.8 µM): 0.971; relative viability (HCC-44; first compound 2.53 µM): 1.03
